The test relates to rat adipocytes. Put plainly: IPG A-type bioassay: stimulation of lipogenesis ([U14C] glucose into lipids) in adipocytes. The test is classed as cell-based. The settings on record: insulin standard assayed at the same time. Here is the method: The activity of P- and A-type IPGs in urine and placental extracts were studied using specific bioassay procedures. IPG P-type was determined using the activation of PDH phosphatase. The PDH complex and PDH phosphatase (metal-dependent form) were prepared from beef heart as described by Lilley et al. and the assay of the activation of the phosphatase was performed by the spectrophotometric variant of the two-stage system described by these authors. This assay is considered to be a characteristic feature of IPG P-type (see Larner et al.) . IPG A-type was determined by the stimulation of lipogenesis as measured by the incorporation of [U^14C] glucose into the lipids of adipocytes isolated from epididymal fat pads by the method of Rodbell. A high degree of specificity for IPG A-type was found for this bioassay.
A straight line relationship between added IPGs and the stimulation of PDH phosphatase activity (IPG P-type) and lipogenesis in intact adipocytes (IPG A-type) was obtained; this relationship held at least up to a stimulation of +250%. These observations provided a basis for a unit to be defined and used for the purpose of comparison of yields of IPGs from different tissues and urine samples.
A unit of IPG is defined as the amount causing a 50% activation in the basal level of the test system.

Turning to insulin [insulin standard], the “stimulation of lipogenesis above base-line” value is on record as “+258%”.

(Values after patent publication US6495330B1, “Materials and methods relating to the diagnosis and treatment of pre-eclampsia and diabetes” (Rodaris Pharmaceuticals Limited, priority 1996, dated 2002).)
